This is an account of results in patent publication US8778966B2, “Quinolinone derivatives as PARP and tank inhibitors” (Janssen Pharmaceutica, NV, priority 2007, dated 2014).

The target of one experiment is T1, TANK-2 enzyme (Homo sapiens, UniProt Q9H2K2).
T1 construct: made in house
T1 sequence (Q9H2K2 1-1166): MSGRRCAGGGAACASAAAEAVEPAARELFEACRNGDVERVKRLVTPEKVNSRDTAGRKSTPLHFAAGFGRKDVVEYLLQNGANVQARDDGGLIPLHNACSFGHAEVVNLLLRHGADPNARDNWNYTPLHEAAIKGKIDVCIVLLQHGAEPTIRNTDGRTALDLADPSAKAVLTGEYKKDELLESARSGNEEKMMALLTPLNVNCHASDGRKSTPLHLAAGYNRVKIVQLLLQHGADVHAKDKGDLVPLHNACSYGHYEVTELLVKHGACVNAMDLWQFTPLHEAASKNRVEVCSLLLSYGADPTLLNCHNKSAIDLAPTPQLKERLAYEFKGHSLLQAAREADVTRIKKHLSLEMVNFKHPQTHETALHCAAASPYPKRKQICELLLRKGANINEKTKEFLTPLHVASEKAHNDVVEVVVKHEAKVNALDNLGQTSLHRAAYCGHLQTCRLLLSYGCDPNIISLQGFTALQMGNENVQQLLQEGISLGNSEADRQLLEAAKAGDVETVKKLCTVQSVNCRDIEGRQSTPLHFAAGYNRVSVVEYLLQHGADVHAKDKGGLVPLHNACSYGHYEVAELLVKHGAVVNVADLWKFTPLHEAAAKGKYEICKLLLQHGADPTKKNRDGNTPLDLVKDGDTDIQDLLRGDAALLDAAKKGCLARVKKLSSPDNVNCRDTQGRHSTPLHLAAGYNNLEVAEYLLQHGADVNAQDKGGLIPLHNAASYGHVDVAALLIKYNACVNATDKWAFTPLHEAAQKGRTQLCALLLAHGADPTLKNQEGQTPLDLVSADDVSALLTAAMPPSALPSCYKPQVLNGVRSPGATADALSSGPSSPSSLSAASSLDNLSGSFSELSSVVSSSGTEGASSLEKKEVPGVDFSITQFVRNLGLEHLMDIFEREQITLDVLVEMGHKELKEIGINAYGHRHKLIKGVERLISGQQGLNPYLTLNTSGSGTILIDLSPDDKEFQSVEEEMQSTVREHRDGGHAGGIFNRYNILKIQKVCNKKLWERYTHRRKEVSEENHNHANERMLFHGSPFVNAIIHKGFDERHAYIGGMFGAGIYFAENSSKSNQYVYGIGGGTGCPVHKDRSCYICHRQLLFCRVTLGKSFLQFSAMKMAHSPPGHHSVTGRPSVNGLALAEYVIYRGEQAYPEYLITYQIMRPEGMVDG
The experiment can be described thus: In vitro Scintillation Proximity Assay (SPA) for TANK-2 inhibitory activity. The note with it: read-out: in vitro SPA assay TANK-2 pIC50 (converted). Format: biochemical. The method, then:
Compounds of the present invention were tested in an in vitro assay based on SPA technology with Ni Flash plates (96 or 384 well). In principle, the assay relies upon SPA technology for the detection of auto-poly(ADP-ribosyl)ation of TANK-2 protein using [^3H]-nicotinamide adenine dinucleotide ([^3H]-NAD^+) as ADP-ribosyl donor.
A stock solution of 100 nM [3H]-NAD^+/NAD (0.1 mCi/ml, supplier: Perkin Elmer) and 0.25 μM NAD (Sigma) was made in assay buffer (60 mM Tris/HCl, pH 7.4; 0.9 mM DTT; 6 mM MgCl2). The TANK-2 enzyme was produced as described in EP1238063. 60 μl of assay buffer, together with 1 μl of compound in DMSO, 20 μl of [^3H]-NAD^+/NAD and 20 μl of TANK-2 enzyme (final concentration 8 μg/ml) was added per well into a 96-well Ni-coated flash plate (Perkin Elmer). After incubation of the mixture for 120 min. at room temperature, the reaction was terminated by adding 60 μl of stopsolution (42.6 mg NAD in 6 ml H2O). The plates were covered with a plate sealer and placed in a TopCountNXT™ (Packard) for scintillation counting. Values were expressed as counts per minute (cpm). For each experiment, controls (containing TANK-2 enzyme and DMSO without compound), a blank incubation (containing DMSO but no TANK-2 enzyme or compound) and samples (containing TANK-2 enzyme and compound dissolved in DMSO) were run in parallel. All compounds tested were dissolved and eventually further diluted in DMSO. In first instance, compounds were tested at a concentration of 10^−5M. […] In each test, the blank value was subtracted from both the control and the sample values. The control sample represented maximal TANK-2 enzyme activity. For each sample, the amount of cpm was expressed as a percentage of the mean cpm value of the controls. When appropriate, IC50-values (concentration of the drug, needed to reduce the TANK-2 enzyme activity to 50% of the control) were computed using linear interpolation between the experimental points just above and below the 50% level. Herein the effects of test compounds are expressed as pIC50 (the negative log value of the IC50-value). As reference compounds, 3-aminobenzamide and 4-amino-1,8-naphtalimide were included to validate the SPA assay. Herein the assay was described using 96-well plates. In the assay using 384-well plates the same final concentrations were used and volumes were adapted.

A further experiment deals with PC3 cells. Briefly: EB1 Comet (microtubule disruption) assay. Format: cell-based, human. The note with it: Homo sapiens, PC-3, 1 h, 1 hour treatment, read-out: EB1 pLAC (converted). Here is the method:
The Eb1 Comet assay relies on the detection of the Eb1 protein at the plus end of polymerizing microtubules (Mimori-Kiyosue, 2000) using indirect immunofluorescence. Disruption of microtubule dynamics through de-polymerization or stabilization results in a de-localization of Eb1 from the growing microtubule ends and this is visualized by the disappearance of Eb1 containing cytoplasmic foci.
Briefly, human prostate cancer PC3 cells obtained from the American Type Culture Collection were grown in 96-well plates (Greiner, cat. no. 655090) in HAM's F12 medium as recommended by the provider (ATCC). The cells were treated for 1 hour at 37° C. with compounds dissolved in DMSO (0.6% final DMSO concentration). The culture medium was then removed by aspiration and the cells were fixed by adding cold methanol (−20 C). After a 15 min. incubation at −20 C, the cells were washed twice with DPBS (Gibco) containing 0.5% Triton X-100. Mouse Eb1 antibody (BD Transduction Laboratories, cat. no. 610534) was added to the cells (1/250 dilution in DPBS containing 1% BSA) and incubated overnight at room temperature. The antibody was subsequently removed and the cells washed twice with DPBS, 0.5% Triton X-100. Secondary goat anti-mouse antibody conjugated to Alexa 488 fluorescent dye (Molecular Probes) was added at a 1/500 dilution in DPBS, 1% BSA and incubated for 1 hour at 37 C. The cells were washed twice with DPBS, 0.5% Triton X-100 and then DPBS containing 0.5% Triton X-100 and 1/5000 Hoechst 33342 (Molecular Probes) was added. Microscopy based Eb1 foci visualization was carried out using an IN Cell Analyser 1000 (Amersham Biosciences) using a 20× objective. Compound dependent microtubule disruption was visually determined by the disappearance in Eb1 foci. The lowest active concentration (LAC) was determined as the concentration where Eb1 foci were absent in at least 50% of the treated cells.

Molecules are shown by their SMILES.

As for `C#Cc1cccc(CC(C)(C#N)c2ccc3cc(CC)c(=O)[nH]c3c2)c1` (racemic) [Compound 168], the IC50 at TANK-2 enzyme is 0.0794 µM. Besides, the minimal effective concentration in the experiment with PC3 cells is 0.1 µM.
The matching figures for `CCc1cc2ccc(C(C)(C#N)CC3COc4ccccc4O3)cc2[nH]c1=O` (single isomer, unassigned) [Compound 48]: 0.2 µM and 1 µM.
As to `CCc1cc2ccc([C@@](C)(C#N)CCOc3ccccc3)cc2[nH]c1=O` (single isomer, unassigned) [Compound 150], the IC50 on TANK-2 enzyme was 0.2 µM.
For the molecule `Cc1cc2ccc([C@@](C)(C#N)CCOc3ccccc3)cc2[nH]c1=O` (single isomer, unassigned) [Compound 164], on TANK-2 enzyme, the IC50 was 0.631 µM. In addition, the minimal effective concentration with PC3 cells is 0.316 µM.
`CCc1cc2ccc(C(C)(C#N)Cc3cccc(C(=O)O)c3)cc2[nH]c1=O` (centres unmarked) [Compound 10]: the IC50 on TANK-2 enzyme is 0.0501 µM.
With `CCc1cc2ccc(C(C)(C#N)Cc3cccc(-c4nc(C)no4)c3)cc2[nH]c1=O` (centres unmarked) [Compound 11], the IC50 on TANK-2 enzyme was 0.0794 µM. Moreover, the minimal effective concentration in the experiment with PC3 cells was 1 µM.
As to `CCc1cc2ccc(C(C)(C#N)Cc3cccc(C(=O)OC)c3)cc2[nH]c1=O` (centres unmarked) [Compound 12], on TANK-2 enzyme, the IC50 was 0.1 µM. For the same molecule, the minimal effective concentration in the experiment with PC3 cells is 0.0316 µM.
`CCc1cc2ccc(C(C)(C#N)Cc3cccc(C(=O)NC)c3)cc2[nH]c1=O` (centres unmarked) [Compound 13]: the IC50 on TANK-2 enzyme was 0.0631 µM.
On the same count and under the same terms, next, `CCc1cc2ccc(C(C)(C#N)Cc3cccc(NS(C)(=O)=O)c3)cc2[nH]c1=O` (centres unmarked) [Compound 14]: 0.0794 µM.
In the case of `CCc1cc2ccc(C(C)(C#N)Cc3cccc(N)c3)cc2[nH]c1=O` (centres unmarked) [Compound 15], at TANK-2 enzyme, the IC50 is 0.1 µM. Moreover, in the experiment on PC3 cells, the minimal effective concentration is 3.16 µM.
For `CCc1cc2ccc(C(C)(C#N)Cc3cccc(NC(=O)N4CCOCC4)c3)cc2[nH]c1=O` (centres unmarked) [Compound 16], the IC50 at TANK-2 enzyme was 0.0794 µM.
As to `CCc1cc2ccc(C(C)(C#N)Cc3ccccc3Br)cc2[nH]c1=O` (centres unmarked) [Compound 104], the IC50 at TANK-2 enzyme was 0.0631 µM. In addition, in the experiment with PC3 cells, the minimal effective concentration was 0.316 µM.
The matching figures for `CCc1cc2ccc(C(C)(C#N)Cc3ccccc3C)cc2[nH]c1=O` (centres unmarked) [Compound 105]: 0.02 µM and 0.316 µM.
Turning to `CCc1cc2ccc(C(C)(C#N)Cc3ccc(C(F)(F)F)cc3)cc2[nH]c1=O` (centres unmarked) [Compound 108], the IC50 on TANK-2 enzyme is 0.126 µM.
With `CCc1cc2ccc(C(C)(C#N)Cc3ccc(C#N)cc3)cc2[nH]c1=O` (centres unmarked) [Compound 111], on TANK-2 enzyme, the IC50 is 0.0316 µM.
On the same count and under the same terms, the same measure for `CCc1cc2ccc(C(C)(C#N)Cc3ccc(F)cc3)cc2[nH]c1=O` (centres unmarked) [Compound 115]: 0.0316 µM; for `CCc1cc2ccc(C(C)(C#N)Cc3ccc(C)cc3)cc2[nH]c1=O` (centres unmarked) [Compound 117]: 0.0251 µM; for `CCc1cc2ccc(C(C)(C#N)Cc3cc(C(F)(F)F)cc(C(F)(F)F)c3)cc2[nH]c1=O` (centres unmarked) [Compound 131]: 1 µM.
In the case of `CCc1cc2ccc(C(C)(C#N)Cc3cc(Br)cc(Br)c3)cc2[nH]c1=O` (centres unmarked) [Compound 133], at TANK-2 enzyme, the IC50 was 0.2 µM.
Same read-out and setting: the same measure for `CCc1cc2ccc(C(C)(C#N)CCOc3ccc(Cl)cc3)cc2[nH]c1=O` (centres unmarked) [Compound 146]: 0.158 µM; for `CCc1cc2ccc(C(C)(C#N)CCOc3ccc(C)cc3)cc2[nH]c1=O` (centres unmarked) [Compound 149]: 0.2 µM.
The same measure, in the same setting: next, `CCc1cc2ccc(C(C)(C#N)CCOc3ccccc3Cl)cc2[nH]c1=O` (centres unmarked) [Compound 152]: 0.126 µM; `CCc1cc2ccc(C(C)(C#N)CCOc3ccccc3Br)cc2[nH]c1=O` (centres unmarked) [Compound 153]: 0.0794 µM; `CCc1cc2ccc(C(C)(C#N)CCOc3ccc(SC)cc3)cc2[nH]c1=O` (centres unmarked) [Compound 155]: 0.126 µM.
Take `CCc1cc2ccc(C(C)(C#N)CCOc3ccccc3C(C)=O)cc2[nH]c1=O` (centres unmarked) [Compound 159]: the IC50 at TANK-2 enzyme is 0.251 µM.
On the same count and under the same terms, next, `CCc1cc2ccc(C(C)(C#N)CCOc3ccc4oc(C)c(C)c4c3)cc2[nH]c1=O` (centres unmarked) [Compound 162]: 0.158 µM; `CCc1cc2ccc(C(C)(C#N)CCOc3cccc4c3OCCO4)cc2[nH]c1=O` (centres unmarked) [Compound 163]: 0.2 µM; `CCc1cc2ccc(C(C#N)(CCOc3ccccc3)C3CC3)cc2[nH]c1=O` (centres unmarked) [Compound 166]: 0.126 µM.
In the case of `CCc1cc2ccc(C(C)(C#N)CCOc3ccc(C(C)(C)C)cc3)cc2[nH]c1=O` (centres unmarked) [Compound 167], the IC50 at TANK-2 enzyme is 0.794 µM.
Same read-out and setting: next, `CCc1cc2ccc(C(C)(C#N)CC#Cc3cccc(F)c3)cc2[nH]c1=O` (centres unmarked) [Compound 184]: 2.51 µM; `Cc1cc2ccc([C@@](C)(C#N)[C@@H]3CCc4cc(C#N)ccc43)cc2[nH]c1=O` [Compound 245]: 1 µM; `CCc1cc2ccc([C@](C)(C#N)C[C@@H]3CCc4cc(C)ccc4O3)cc2[nH]c1=O` [Compound 251]: 0.316 µM.
Same read-out and setting: the same measure for `CCc1cc2ccc([C@@](C)(C#N)C[C@@H]3CCc4cc(C)ccc4O3)cc2[nH]c1=O` [Compound 252]: 0.794 µM.
Regarding `CCc1cc2ccc(C(C#N)(CC)CCOc3ccc(C#N)cc3)cc2[nH]c1=O` (centres unmarked) [Compound 271], the IC50 at TANK-2 enzyme was 0.501 µM.
On the same count and under the same terms, the same measure for `Cc1cc2ccc([C@@](C)(C#N)[C@H]3CCc4cc(C#N)ccc43)cc2[nH]c1=O` [Compound 389]: 3.16 µM; for `CCc1cc2ccc(C(C#N)(CC)C3CCc4ccc(F)cc43)cc2[nH]c1=O` (centres unmarked) [Compound 391]: 0.631 µM.
